Data taken from patent publication US12496298B2, “Natural killer cells” (Imperial College Innovations Limited, priority 2017, dated 2025).
“Also recorded” adds a separate entry of the source.

System: HPCs isolated from wild type, E4bp4 knockout and heterozygous mice
Assay: NK cell production from HPCs isolated from WT, E4bp4 Het and E4bp4 KO mice
Format: cell-based, mouse
Procedure: FIG. 7: HPCs isolated from either wild type (WT), E4bp4 knockout (KO) or heterozygous (Het) mice were cultured with the addition of 5 or 10 μM SR8278. At Day 9, percentage of NK cells was quantified using flow cytometry. Graph showing relative mature mouse NK cell (NK1.1^+ CD3^−) production compared to the ‘No drug’ control in experiments with (A) WT, (B) Het and (C) E4bp4 KO mice. (D) Representative flow cytometry results with percentage of NK cells shown for the addition of 10 μM SR8278. Results were averaged from two experiments with four repeats each and the error bars represent the mean+SD. Asterisks indicate significant differences from the two annotated results (* is P≤0.01 and ** is P≤0.001) based on Mann-Whitney test.
Following the experiment with GSK4112, it was predicted that SR8278 acts through the pathway involving REV-ERB and E4bp4. […] Cell cultures were performed as previously (FIG. 3), where SR8278 was added on Day 2 of the culture and NK cell production was measured by flow cytometry. […]
Cells to be analysed by flow cytometry were passed through 40 μm cell strainers to remove clumps and washed with PBS buffer, centrifuged at 800 g for 2 minutes and resuspended in 100 μl fluorescent activated cell sorting (FACS) buffer (PBS plus 1% BSA) with appropriate fluorochrome conjugated antibodies at a dilution of 1 in 300. […]

CCOC(=O)C1Cc2ccccc2CN1C(=O)c1ccc(SC)s1 (centres unmarked) [SR8278, 1,2,3,4-Tetrahydro-2-[[5-(methylthio)-2-thienyl]carbonyl]-3-isoquinolinecarboxylic acid ethyl ester]
percentage of NK cells produced (HPCs from E4bp4 KO mice, regardless of concentration): absent of NK cells; also recorded: no effect | percentage of NK cells produced compared to 'No drug' control (HPCs from WT mice, 5 μM and 10 μM added Day 2): largest significant increase
